Measurements from patent publication US6030841A, “Liver function test” (Norgine Limited, priority 1997, dated 2000).
Read-outs that look alike come from different tables or passages of the source.

Columns and labels:
[1] = Plasma elimination of CLF after intravenous injection in healthy volunteers (and patients); assay type: in vivo, human
Procedure: A study was carried out in six healthy volunteers (1 female, 5 male), ages 30-53 years. Subjects were studied supine after overnight fasting. After an initial basal blood sample was taken, CLF in a dose of 0.02 mg/kg of body weight (b.w.) in physiological saline was injected intravenously during 15 seconds. Venous blood samples were collected from the opposite antecubital vein into gel and lithium heparin containers (sold under the Trade Name Vacutainers by Becton Dickinson Vacutainer Systems) at 2, 3, 4, 6, 10, 15, 20, 30, 60 and 90 minutes. The blood samples were then centrifuged and 0.5 ml aliquots of plasma were taken and added to 3.5 ml of methanol to precipitate plasma proteins, followed by further centrifugation. The supernatant (1 ml) was diluted to 3 ml with methanol and the fluorescence was then measured by spectrometer (Perkin Elmer LS5B Luminescence Spectrometer).
CLF concentration (μg/ml) was derived from a calibration curve which expressed the equation: […]
where y represents the measured fluorescence in fluorescence units at an excitation wavelength of 490 nm with emission at 520 nm and x represents the CLF concentration in μg/ml. The calibration curve was calibrated from fluorescence meaurements of solutions having known CLF concentrations followed by linear regression analysis.
Non linear plasma elimination curves presented as percentage dose administered per liter of plasma were fitted to a tri-exponential model. The half life (t1/2 time) was calculated for the first (t1/2 1st phase), second (t1/2 2nd phase) and third (t1/2 3rd phase) phases of the elimination curves from the equations: […]
where k1, k2 and k3 were calculated for each subject using the equation:
Ct =Ae^-k.sbsp.1^t +Be^-k.sbsp.2^t
Ct is the concentration of CLF at time t, A, B and C are the intercepts of each phase of elimination at t=0 k1, k2 and k3 are fractional disappearance rates of the three phases of elimination.

[2] = Standard liver function tests, electrolytes and kidney function before and after 0.5 mg/kg b.w. CLF; assay type: in vivo, human
Procedure: In five healthy volunteers, a 25-fold higher dose of CLF (0.5 mg/kg b.w.) was injected in order to further assess the appropriateness of the dose chosen and the safety of the compound. […] Table.
Tests of Liver Function Before And After CLF Dose of
0.5 mg/Kg b.w. For 5 Healthy Patients.

[3] = Horak et al., cited from earlier work
[4] = radiolabelled, bi-exponential model, Cowen et al.; cited from earlier work
[5] = CLF 0.02 mg/kg b.w. i.v., healthy volunteers, plasma, tri-exponential model
[6] = after CLF 0.5 mg/kg b.w., only one value given

Question: Which “efficiency of hepatic clearance (elimination curves at 25-fold increased dose)” value ([1]; 0.5 mg/kg b.w. i.v. versus 0.02 mg/kg, healthy volunteers) does the source give for `CC(CCC(=O)NC(CCCCNC(=S)Nc1ccc(-c2c3ccc(=O)cc-3oc3cc(O)ccc23)c(C(=O)O)c1)C(=O)O)C1CCC2C3C(O)CC4CC(O)CCC4(C)C3CC(O)C12C` (stereo not shown) [CLF, cholyl-lysyl-fluorescein] here?
Answer: efficiency of hepatic clearance is unchanged

Question: What about the “percentage of fluorescence after 60 min (fluorescence at 60 min compared with 10 min)” value ([1]; 60 min vs 10 min, plasma, healthy volunteers) of the same molecule?
Answer: 13.1±1.6%

Question: And the “Plasma retention at 90 minutes, percentage of the dose administered per liter of plasma” value ([1]; 90 minutes, i.v., healthy volunteers)?
Answer: 2.2%

Question: And the “t1/2 1st phase of elimination” value [1, 5]?
Answer: 1.7 ± 0.9 min

Question: What about the “t1/2 2nd phase of elimination” value [1, 5] of the same molecule?
Answer: 6.7 ± 1.6 min

Question: And the “t1/2 3rd phase of elimination” value [1, 5]?
Answer: 68 ± 17 min

Question: What about the “CLF plasma elimination compared with natural bile acids” value ([1]; body of data, comparison with natural bile acids) of the same molecule?
Answer: very similar to the elimination of natural bile acids

Question: What about the volume of distribution ([1]; calculated as proposed by Thiordleifsson et al., 0.02 mg/kg) of the same molecule?
Answer: 2214 ± 147 mL

Question: And the “CLF elimination curves of FIG. 2” value ([1]; healthy patients versus patients with fatty, cirrhotic and recently transplanted livers (5 days post operation))?
Answer: differing rates of CLF elimination

Question: What about the “Serum biochemistry including basic liver function tests, electrolytes and kidney function” value ([2]; 0.5 mg/kg b.w. i.v., five healthy volunteers) of the same molecule?
Answer: did not change significantly

Question: What about the “plasma alkaline phosphatase levels post injection” value ([2]; 0.5 mg/kg b.w. i.v., healthy volunteers, not statistically significant) of the same molecule?
Answer: consistent diminution

Question: What about the “bilirubin after CLF injection” value ([2]; after CLF 0.5 mg/kg b.w., before: 10) of the same molecule?
Answer: 11 μM/L

Question: What about the “AST (aspartate aminotransferase) after CLF injection” value ([2]; after CLF 0.5 mg/kg b.w., before: 17) of the same molecule?
Answer: 16 U/L

Question: And the “Creatinine after CLF injection” value ([2]; after CLF 0.5 mg/kg b.w., before: 94)?
Answer: 89 μM/L

Question: What about the “AlkP (alkaline phosphatase) after CLF injection” value ([2]; after CLF 0.5 mg/kg b.w., before: 148) of the same molecule?
Answer: 134 U/L

Question: What about the “Albumin after CLF injection” value [2, 6] of the same molecule?
Answer: 42 g/L

Question: And the “Urea after CLF injection” value [2, 6]?
Answer: 4.3 mM/L

Question: Which “60 min plasma retention” value ([3]; FHF patients who survived) does the source give for `C[C@H](CCC(=O)O)[C@H]1CC[C@H]2[C@@H]3[C@H](O)C[C@@H]4C[C@H](O)CC[C@]4(C)[C@H]3C[C@H](O)[C@]12C` [cholic acid] here?
Answer: 60%

Question: What about the “60 min plasma retention” value ([3]; healthy volunteers, 60 min compared with 10 min) of the same molecule?
Answer: 8±1%

Question: What about the “60 min plasma retention” value ([3]; patients with fulminant hepatic failure (FHF) who subsequently died) of the same molecule?
Answer: 71%

Question: What does the source list for `C[C@H](CCC(=O)NCC(=O)O)[C@H]1CC[C@H]2[C@@H]3[C@H](O)C[C@@H]4C[C@H](O)CC[C@]4(C)[C@H]3C[C@H](O)[C@]12C` [cholyl glycine]?
Answer: t1/2 first exponential [4]: 1.7 ± 0.1 min; t1/2 second exponential [4]: 7 ± 0.1 min
